Laboratory results published in ChEMBL document CHEMBL1201862, “PubChem BioAssay data set” (2004).
Where a name gives a salt, the structure may show the parent alone.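 Values below derive from 48-hour exposures of cells grown in 96-well plates, with endpoints linearly interpolated between the two concentrations bracketing the appropriate inhibition level. At the GI50, growth is halved.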 The source made the active and inactive calls. Rule as the data show it: active = GI50 up to about 1.1 µM and inactive = higher.

Key:
Assay in all cases: inhibition of tumour cell growth, NCI panel, 48 h
[1] = system: NCI/ADR-RES
[2] = system: DU-145
[3] = system: LXFL 529
[4] = system: HOP-18
[5] = system: DMS-114
[6] = system: KM-20L2
[7] = system: XF498
[8] = system: SNB-78

SMILES	GI50 [1]	GI50 [2]	GI50 [3]	GI50 [4]	GI50 [5]	GI50 [6]	GI50 [7]	GI50 [8]
CCOC(=O)CCCn1cc(C(=O)OC)nn1	> 100 µM (inactive)	> 100 µM (inactive)						
C(/c1ccco1)=c1/nc(-c2ccccc2)n2c1nc1ccccc12	23.4 µM (inactive)	> 100 µM (inactive)						
CCCCCc1c2nc(c(CCCCC)c3ccc([nH]3)c(CCCCC)c3nc(c(CCCCC)c4ccc1[nH]4)C=C3)C=C2	> 100 µM (inactive)	> 100 µM (inactive)						
COc1cccc2c1OC1(C=C2)Oc2ccccc2C(=O)N1C (configuration not stated)	3.91 µM (inactive)	34 µM (inactive)						
CSC1(C(=O)O)C2CCC3C2CCC31 (configuration not stated)	> 100 µM (inactive)	> 100 µM (inactive)						
CCc1cccc(C(C)C)c1NC(=O)C(=O)C(Cc1nc2ccccc2nc1O)C(=O)OC (configuration not stated)			> 100 µM (inactive)	> 100 µM (inactive)	14.3 µM (inactive)	> 100 µM (inactive)	> 100 µM (inactive)	
OCCOCn1cc(Cn2ncc3c(SCc4ccccc4)ncnc32)nn1	31.8 µM (inactive)	43.7 µM (inactive)						
O=C1c2ccccc2C(=O)c2c(O)c(NCCNCCO)cc(O)c21			5.96 µM (inactive)	6.49 µM (inactive)	4.19 µM (inactive)	4.12 µM (inactive)	6.95 µM (inactive)	5.21 µM (inactive)
O=S1(=O)CCN(Cc2ccccc2)/C1=N\S(=O)(=O)c1ccc(Cl)cc1	16.6 µM (inactive)	20.5 µM (inactive)						
C=CCOC(C)(C)C1=CCC(C)CC1 (configuration not stated)		> 100 µM (inactive)						
[N-]=[N+]=Nc1c([N+](=O)[O-])c(=O)n2c3c(cccc13)CCC2	20.6 µM (inactive)	16.9 µM (inactive)						
Cc1c2oc(=O)c(C#N)cc2c2ccccn12	> 100 µM (inactive)	> 100 µM (inactive)						
COC(=O)C(=O)C(C(=O)C(=O)Nc1nnc(S)[nH]1)c1nc2ccc([N+](=O)[O-])cc2nc1O (configuration not stated)	> 100 µM (inactive)							
CC1=CC(=O)CC(C)(C)C1/C=C/C(C)=C/C=C/C(C)=C/C=C/C=C(C)/C=C/C=C(C)/C=C/C1=C(C)CC(O)CC1(C)C (configuration not stated)	51.5 µM (inactive)	24.4 µM (inactive)						
COC(=O)C1C(OC(=O)C(Cl)(c2ccccc2)c2ccccc2)CC2CCC1N2C (configuration not stated)	> 100 µM (inactive)	> 100 µM (inactive)						
O=c1c2cc(I)ccc2nc(SCc2n[nH]c(=S)o2)n1Cc1ccccc1	19.1 µM (inactive)	16.3 µM (inactive)						

SMILES	GI50 [1]	GI50 [2]	GI50 [3]	GI50 [4]	GI50 [5]	GI50 [6]	GI50 [7]	GI50 [8]
COc1ccc2nccc(C3=CCC4CCN(C(=O)c5ccccc5)C3C4)c2c1 (configuration not stated)			> 100 µM (inactive)		> 100 µM (inactive)		92 µM (inactive)	> 100 µM (inactive)
O=C(NCCCCCCNC(=O)n1cc(F)c(=O)[nH]c1=O)NCCCOCCOCCOCCOCCOCCOCCOCCOCCOCCOCCOCCOCCOCCOCCOCCOCCOCCOCCOCCOCCOCCCNC(=O)C(O)C(O)C(OC1OC(CO)C(O)C(O)C1O)C(O)CO (configuration not stated)	47.2 µM (inactive)	27.7 µM (inactive)		> 37 µM (inactive)	> 100 µM (inactive)	24.1 µM (inactive)	> 100 µM (inactive)	> 100 µM (inactive)
CC(=O)O/N=C(/C)c1ccccc1O			> 100 µM (inactive)	> 100 µM (inactive)	> 100 µM (inactive)	> 100 µM (inactive)	> 100 µM (inactive)	> 100 µM (inactive)
CCCc1nc2c(n1CC)C(=O)c1ccccc1C2=O	26.2 µM (inactive)	74.5 µM (inactive)						
O=C(Nn1c(-c2ccccc2)nc2ccccc2c1=O)c1ccc(Cl)cc1	> 100 µM (inactive)	> 100 µM (inactive)						
C=CC[C@H](C[C@H](C[C@H](C[C@H](C[C@H](C[C@H](C[C@H](C[C@H](C[C@H](C[C@H](CCCCC)OC)OC)OC)OC)OC)OC)OC)OC)OC)OC				> 100 µM (inactive)	52.6 µM (inactive)	> 100 µM (inactive)	41.6 µM (inactive)	> 100 µM (inactive)
Cc1ccc(-c2c(C#N)c(S)n(NS(=O)(=O)c3ccccc3)c(=O)c2C#N)cc1	13.2 µM (inactive)	53.3 µM (inactive)						
CC1=C[C@H](C[C@]2(C)c3c(c4c(C)cccc4oc3=O)O[C@@H]2C)OC1=O	20.1 µM (inactive)	> 100 µM (inactive)						
Cc1ccc(S(=O)(=O)NC(=O)Nc2c(S(N)(=O)=O)cc(S(N)(=O)=O)c(Cl)c2Cl)cc1	> 100 µM (inactive)							
Cc1ccc(-n2c3nc(=O)n(C)c(=O)c-3nc3ccccc32)cc1			36 µM (inactive)	14.7 µM (inactive)	13.7 µM (inactive)	5.27 µM (inactive)	25.4 µM (inactive)	30.5 µM (inactive)
O=C1Cc2c([nH]c3c(Br)cccc23)-c2ccccc2N1	40.3 µM (inactive)	> 100 µM (inactive)						
C[N+](C)([O-])CCCNc1ccnc2cccc([N+](=O)[O-])c12		20.9 µM (inactive)						
O=C(C(=O)N1CCc2ccccc21)c1c[nH]c2ccccc12	> 10 µM (inactive)	> 10 µM (inactive)						
N=c1ccn2c(n1)O[C@H]1[C@H](O)[C@@H](CO)O[C@H]12 [ANCITABINE HYDROCHLORIDE]	2.35 µM (inactive)			11.2 µM (inactive)	0.406 µM (active)	> 562 µM (inactive)	> 647 µM (inactive)	242 µM (inactive)
COc1c(O)c2c(c3cc(C(=O)N4CCc5c4c(O)c(OC)c4[nH]c(C(=O)N6CC7CC78C6=CC(=O)c6[nH]cc(C)c68)cc54)[nH]c13)CCN2C(N)=O (configuration not stated) [CC-1065]		0.284 µM (active)	0.00834 µM (active)		0.0025 µM (active)	0.00334 µM (active)		0.00404 µM (active)
O=C(O)CN1CCN(CC(=O)O)CCN(CC(=O)O)CCN(CC(=O)O)CC1 [TETRAXETAN]	> 100 µM (inactive)	> 100 µM (inactive)						
